Active and inactive are the calls of the source. The calls are words filed in the database; no cut-off is given here.
Experiments:
[1] = test system: AGS; assay: Anti-proliferative activity against human AGS cells assessed as inhibition of cell viability incubated for 48 hrs by CCK8 assay; format: functional, cell-based
[2] = test system: Gastric cancer cell; assay: Anti-proliferative activity against human gastric cancer cells assessed as reduction in cell proliferation at 10 to 40 uM; format: functional, cell-based; conditions: dose 10-40 µM
[3] = test system: GES1; assay: Anti-proliferative activity against human GES1 cells; format: toxicity, cell-based
[4] = test system: AGS; assay: Potency index, ratio of cisplatin IC50 to test compound IC50 for anti-proliferative activity against human AGS cells assessed as inhibition of cell viability incubated for 48 hrs by CCK8 assay; format: functional
[5] = target: Sodium/calcium exchanger 1 (Homo sapiens) (UniProt P32418); assay: Activation of NCX1 in human AGS cells harboring shNCX1 assessed as increase in intracellular Fluo4-Ca2+ level at 5 uM in presence of extracellular Fluo4-Ca2+ by cell imaging analysis; format: cell-based
[6] = target: Sodium/calcium exchanger 1 (Homo sapiens) (UniProt P32418); assay: Activation of NCX1 in human AGS cells assessed as induction of membrane currents at 5 uM in presence of extracellular Fluo4-Ca2+ by cell imaging analysis; format: cell-based; conditions: filed as activator
[7] = target: Sodium/calcium exchanger 1 (Homo sapiens) (UniProt P32418); assay: Activation of NCX1 in human AGS cells assessed as increase in intracellular Fluo4-Ca2+ level at 5 uM in presence of extracellular Fluo4-Ca2+/SN6 by cell imaging analysis; format: cell-based
[8] = target: Sodium/calcium exchanger 1 (Homo sapiens) (UniProt P32418); assay: Activation of NCX1 in human AGS cells assessed as induction of membrane currents at 5 uM in presence of extracellular Fluo4-Ca2+/SN6 by cell imaging analysis; format: cell-based
[9] = target: Sodium/calcium exchanger 1 (Homo sapiens) (UniProt P32418); assay: Activation of NCX1 in human DLD-1 cells assessed as increase in intracellular Fluo4-Ca2+ level at 5 uM in presence of extracellular Fluo4-Ca2+ by cell imaging analysis; format: cell-based
[10] = test system: AGS; assay: Induction of apoptosis in human AGS cells assessed as late apoptotic cells at 20 uM by Annexin V-FITC/PI staining based flow cytometry (reference value: 1.43 %); format: functional
[11] = test system: AGS; assay: Downregulation of PI3K level in human AGS cells at 5 uM in presence of SN 6 by Western blot analysis; format: functional, cell-based
[12] = test system: AGS; assay: Induction of apoptosis in human AGS cells assessed as necrotic cells at 5 uM by Annexin V-FITC/PI staining based flow cytometry (reference value: 0.20 %); format: functional
[13] = test system: AGS; assay: Downregulation of PI3K level in human AGS cells by Western blot analysis; format: functional, cell-based; conditions: dose <= 10.0 µM
[14] = test system: AGS; assay: Downregulation of AKT level in human AGS cells by Western blot analysis; format: functional, cell-based; conditions: dose <= 10.0 µM
[15] = test system: B16; assay: Antiproliferative activity against mouse B16 cells assessed as inhibition of cell viability; format: functional, cell-based
[16] = test system: AGS; assay: Inhibition of cell migration in human AGS cells at 5 uM incubated up to 24 hrs by scratch wound healing assay; format: functional, cell-based
[17] = test system: AGS; assay: Induction of apoptosis in human AGS cells assessed as early apoptotic cells at 5 uM by Annexin V-FITC/PI staining based flow cytometry (reference value: 4.25 %); format: functional
[18] = test system: AGS; assay: Induction of cell cycle arrest in human AGS cells assessed as cell accumulation at S phase at 5 uM by PI staining based flow cytometry (reference value: 32.4 %); format: functional
[19] = test system: AGS; assay: Induction of apoptosis in human AGS cells assessed as viable cells at 20 uM by Annexin V-FITC/PI staining based flow cytometry (reference value: 94.1 %); format: functional; conditions: read-out: Activity
[20] = test system: AGS; assay: Effect on ERK1/2 level in human AGS cells up to 10 uM by Western blot analysis; format: functional, cell-based
[21] = test system: AGS; assay: Induction of apoptosis in human AGS cells assessed as necrotic cells at 10 uM by Annexin V-FITC/PI staining based flow cytometry (reference value: 0.20 %); format: functional
[22] = test system: AGS; assay: Induction of apoptosis in human AGS cells assessed as necrotic cells at 20 uM by Annexin V-FITC/PI staining based flow cytometry (reference value: 0.20 %); format: functional
[23] = test system: AGS; assay: Induction of apoptosis in human AGS cells assessed as late apoptotic cells at 5 uM by Annexin V-FITC/PI staining based flow cytometry (reference value: 1.43 %); format: functional
[24] = test system: AGS; assay: Downregulation of beta-catenin level in human AGS cells at 5 uM in presence of SN 6 by Western blot analysis; format: functional, cell-based
[25] = test system: AGS; assay: Inhibition of cell migration in human AGS cells at 5 uM by transwell assay; format: functional, cell-based
[26] = test system: AGS; assay: Induction of apoptosis in human AGS cells assessed as early apoptotic cells at 10 uM by Annexin V-FITC/PI staining based flow cytometry (reference value: 4.25 %); format: functional
[27] = test system: AGS; assay: Downregulation of AKT level in human AGS cells at 5 uM in presence of SN 6 by Western blot analysis; format: functional, cell-based
[28] = test system: AGS; assay: Induction of apoptosis in human AGS cells assessed as early apoptotic cells at 20 uM by Annexin V-FITC/PI staining based flow cytometry (reference value: 4.25 %); format: functional
[29] = test system: AGS; assay: Induction of apoptosis in human AGS cells assessed as viable cells at 10 uM by Annexin V-FITC/PI staining based flow cytometry (reference value: 94.1 %); format: functional; conditions: read-out: Activity
[30] = test system: B16; assay: Activation of NCX1 in mouse B16 cells assessed as increase in intracellular Fluo4-Ca2+ level at 5 uM in presence of extracellular Fluo4-Ca2+/SN 6 by cell imaging analysis; format: cell-based
[31] = test system: AGS; assay: Downregulation of beta-catenin level in human AGS cells by Western blot analysis; format: functional, cell-based; conditions: dose <= 10.0 µM
[32] = test system: B16; assay: Activation of NCX1 in mouse B16 cells harboring shNCX1 assessed as increase in intracellular Fluo4-Ca2+ level at 5 uM in presence of extracellular Fluo4-Ca2+ by cell imaging analysis; format: cell-based
[33] = test system: AGS; assay: Induction of apoptosis in human AGS cells assessed as viable cells at 5 uM by Annexin V-FITC/PI staining based flow cytometry (reference value: 94.1 %); format: functional; conditions: read-out: Activity
[34] = test system: AGS; assay: Induction of cell cycle arrest in human AGS cells assessed as cell accumulation at G2 phase at 5 uM by PI staining based flow cytometry (reference value: 25.7 %); format: functional
[35] = test system: B16; assay: Antitumor activity against mouse B16 cells implanted in nude mouse at 2.5 to 5 mg/kg, ip; format: functional, organism-based; conditions: dose 2.5-5 mg/kg
[36] = target: Sodium/calcium exchanger 1 (Homo sapiens) (UniProt P32418); assay: Activation of NCX1 in human AGS cells assessed as increase in intracellular Fluo4-Ca2+ level at 5 uM in presence of extracellular Fluo4-Ca2+ by cell imaging analysis; format: cell-based; conditions: filed as activator
[37] = test system: AGS; assay: Induction of cell cycle arrest in human AGS cells assessed as cell accumulation at G1 phase at 5 uM by PI staining based flow cytometry (reference value: 41.9 %); format: functional
[38] = test system: B16; assay: Activation of NCX1 in mouse B16 cells assessed as increase in intracellular Fluo4-Ca2+ level at 5 uM in presence of extracellular Fluo4-Ca2+ by cell imaging analysis; format: cell-based; conditions: filed as activator
[39] = test system: AGS; assay: Induction of apoptosis in human AGS cells assessed as late apoptotic cells at 10 uM by Annexin V-FITC/PI staining based flow cytometry (reference value: 1.43 %); format: functional

Chain of Sodium/calcium exchanger 1 (Homo sapiens) (P32418 36-973 limits assumed): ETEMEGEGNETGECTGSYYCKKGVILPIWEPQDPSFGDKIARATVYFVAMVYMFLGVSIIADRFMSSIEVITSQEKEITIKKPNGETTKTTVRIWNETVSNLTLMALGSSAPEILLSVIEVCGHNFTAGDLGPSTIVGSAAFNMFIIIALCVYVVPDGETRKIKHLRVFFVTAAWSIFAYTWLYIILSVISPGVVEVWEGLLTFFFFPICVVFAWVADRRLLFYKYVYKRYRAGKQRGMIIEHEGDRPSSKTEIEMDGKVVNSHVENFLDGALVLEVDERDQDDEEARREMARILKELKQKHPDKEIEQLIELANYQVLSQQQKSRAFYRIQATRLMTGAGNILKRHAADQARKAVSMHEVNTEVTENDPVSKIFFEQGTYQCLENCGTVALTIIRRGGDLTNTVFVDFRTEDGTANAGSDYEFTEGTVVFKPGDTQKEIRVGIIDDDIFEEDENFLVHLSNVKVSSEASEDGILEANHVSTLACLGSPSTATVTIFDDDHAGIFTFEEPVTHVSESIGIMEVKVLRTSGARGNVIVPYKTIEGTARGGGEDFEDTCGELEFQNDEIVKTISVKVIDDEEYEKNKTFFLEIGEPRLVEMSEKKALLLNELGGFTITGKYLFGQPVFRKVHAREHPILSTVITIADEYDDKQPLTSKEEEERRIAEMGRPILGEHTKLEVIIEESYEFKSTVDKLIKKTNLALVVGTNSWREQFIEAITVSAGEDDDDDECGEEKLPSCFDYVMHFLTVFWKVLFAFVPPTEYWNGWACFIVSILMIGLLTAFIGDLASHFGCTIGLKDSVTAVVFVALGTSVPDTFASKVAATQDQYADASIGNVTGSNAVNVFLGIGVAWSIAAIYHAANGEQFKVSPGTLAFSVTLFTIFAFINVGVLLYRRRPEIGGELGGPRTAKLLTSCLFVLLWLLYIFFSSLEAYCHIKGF

## CC(=O)O[C@H]1[C@@H](C)CC(O)=C2C(=O)c3c(ccc(-c4ccc5c(c4O)C(=O)C4=C(O)C[C@H](C)[C@H](OC(C)=O)[C@]4(CO)O5)c3O)O[C@]21CO
[1]; Homo sapiens, AGS, 48 h
  IC50: 3.45 µM
[2]
  Activity: Active
[3]
  Activity: Non-toxic
[4]
  Ratio IC50: 2

## CC(=O)OC[C@@]12Oc3c(-c4ccc5c(c4O)C(=O)C4=C(O)C[C@H](C)[C@H](OC(C)=O)[C@]4(CO)O5)ccc(O)c3C(=O)C1=C(O)C[C@H](C)[C@@H]2OC(C)=O (stereo in doubt; 3) [listing 1 of 2 here]
[1]; ags
  IC50: 3.89 µM

## CC(=O)OC[C@@]12Oc3ccc(-c4ccc5c(c4O)C(=O)C4=C(O)C[C@H](C)[C@H](OC(C)=O)[C@]4(COC(C)=O)O5)c(O)c3C(=O)C1=C(O)C[C@H](C)[C@@H]2OC(C)=O
[1]; Homo sapiens, AGS, 48 h
  IC50: 6.23 µM
[2]
  Activity: Active
[3]
  Activity: Non-toxic
[4]
  Ratio IC50: 2

## CC(=O)OC[C@@]12Oc3c(-c4ccc5c(c4O)C(=O)C4=C(O)C[C@H](C)[C@H](OC(C)=O)[C@]4(CO)O5)ccc(O)c3C(=O)C1=C(O)C[C@H](C)[C@@H]2OC(C)=O (stereo in doubt; 2) [listing 1 of 2 here]
[1]; Homo sapiens, AGS, 48 h
  IC50: 5.36 µM
[3]
  Activity: Non-toxic
[4]
  Ratio IC50: 2

## CC(=O)O[C@H]1[C@@H](C)CC(O)=C2C(=O)c3c(O)ccc(-c4ccc5c(c4O)C(=O)C[C@](CO)([C@H]4OC(=O)C[C@@H]4C)O5)c3O[C@]21CO
[1]; Homo sapiens, AGS, 48 h
  IC50: 2.65 µM
[3]
  Activity: Non-toxic
[4]
  Ratio IC50: 2

## CC(=O)O[C@H]1[C@@H](C)CC(O)=C2C(=O)c3c(O)ccc(-c4ccc(O)c5c4O[C@]4(CO)C(=C(O)C[C@H](C)[C@@H]4OC(C)=O)C5=O)c3O[C@]21CO
[1]; Homo sapiens, AGS, 48 h
  IC50: 13.8 µM
[2]
  Activity: Active
[3]
  Activity: Non-toxic
[4]
  Ratio IC50: 2

## CC(=O)OC[C@@]12Oc3c(-c4ccc5c(c4O)C(=O)C4=C(O)C[C@H](C)[C@H](OC(C)=O)[C@]4(CO)O5)ccc(O)c3C(=O)C1=C(O)C[C@H](C)[C@@H]2OC(C)=O (stereo in doubt; 3) [listing 2 of 2 here]
[5]
  Activity: inactive
[6]
  Activity: Active
[7]
  Activity: inactive
[2]
  Activity: Active
[8]
  Activity: inactive
[9]
  Activity: inactive

## CC(=O)OC[C@@]12Oc3c(-c4ccc(O)c5c4O[C@]4(CO)C(=C(O)C[C@H](C)[C@@H]4OC(C)=O)C5=O)ccc(O)c3C(=O)C1=C(O)C[C@H](C)[C@@H]2OC(C)=O
[10]
  Activity: 5.94%
[11]
  Activity: inactive
[5]
  Activity: inactive
[12]
  Activity: 0.13%
[13]
  Activity: Dose-dependent-effect
[14]
  Activity: Dose-dependent-effect
[15]
  IC50: 5.36 µM
[16]
  inhibition: Active
[17]
  Activity: 5.57%
[1]; Homo sapiens, AGS, 48 h
  IC50: 5.2 µM
[18]
  Activity: 26.3%
[19]
  viability at 20 µM: 77.3%
[20]
  Activity: No effect
[21]
  Activity: 0.094%
[22]
  Activity: 0.18%
[23]
  Activity: 2.54%
[24]
  Activity: inactive
[25]
  inhibition: Active
[6]
  Activity: Active
[26]
  Activity: 4.24%
[7]
  Activity: inactive
[27]
  Activity: inactive
[2]
  Activity: Active
[28]
  Activity: 16.6%
[29]
  viability at 10 µM: 93.7%
[30]
  Activity: inactive
[8]
  Activity: inactive
[31]
  Activity: Dose-dependent-effect
[3]
  Activity: Non-toxic
[32]
  Activity: inactive
[33]
  viability at 5 µM: 91.8%
[34]
  Activity: 24.9%
[35]
  Activity: Active; Activity Was Much Greater Than Cisplatin
[4]
  Ratio IC50: 2
[36]
  Activity: Active
[37]
  Activity: 48.8%
[38]
  Activity: Active
[9]
  Activity: inactive
[39]
  Activity: 2.01%

## CC(=O)OC[C@@]12Oc3c(-c4ccc5c(c4O)C(=O)C4=C(O)C[C@H](C)[C@H](OC(C)=O)[C@]4(CO)O5)ccc(O)c3C(=O)C1=C(O)C[C@H](C)[C@@H]2OC(C)=O (stereo in doubt; 2) [listing 2 of 2 here]
[2]
  Activity: Active

## CC(=O)OC[C@@]12Oc3ccc(-c4ccc5c(c4O)C(=O)C4=C(O)C[C@H](C)[C@H](OC(C)=O)[C@]4(CO)O5)c(O)c3C(=O)C1=C(O)C[C@H](C)[C@@H]2OC(C)=O
[1]; Homo sapiens, AGS, 48 h
  IC50: 3.47 µM
[2]
  Activity: Active
[3]
  Activity: Non-toxic
[4]
  Ratio IC50: 2

## CC(=O)O[C@H]1[C@@H](C)CC(O)=C2C(=O)c3c(ccc(-c4ccc(O)c5c4O[C@]4(CO)C(=C(O)C[C@H](C)[C@@H]4OC(C)=O)C5=O)c3O)O[C@]21CO
[1]; Homo sapiens, AGS, 48 h
  IC50: 3.06 µM
[2]
  Activity: Active
[3]
  Activity: Non-toxic
[4]
  Ratio IC50: 2

Reference: ChEMBL document CHEMBL6182873, “Fungal dimeric xanthones as anticancer agents by novelly stimulating sodium-calcium exchanger 1” (Eur J Med Chem, 2025)
